Assay results reported in ChEMBL document CHEMBL2417379, “Anti-inflammatory and anti-apoptotic effects of (RS)-glucoraphanin bioactivated with myrosinase in murine sub-acute and acute MPTP-induced Parkinson's disease” (Bioorg Med Chem, 2013).
Calls of active or inactive are those of the source. The rule behind the calls is not given here.

What was measured:
[1] = tested on: Mus musculus; test: Antiapoptotic activity against C57BL/6 mouse sub-acute MPTP-induced parkinson's disease model assessed as protection against neuronal functional disruption at 10 mg/kg, ip administered for 1 week prior to MPTP challenge by golgi staining-based microscopic analysis relative to untreated control; type: organism-based; parameters: dose 10 mg/kg
[2] = tested on: Mus musculus; test: Neuroprotective activity in C57BL/6 mouse acute MPTP-induced parkinson's disease model assessed as increase in NGF expression in brain at 10 mg/kg, ip administered for 1 week prior to MPTP challenge by immunohistochemistry; type: functional, organism-based; parameters: dose 10 mg/kg
[3] = tested on: Mus musculus; test: Neurotoxicity in C57BL/6 mouse assessed as nitrotyrosine localization in substantia nigra pars compacta at 10 mg/kg, ip by immunohistochemistry; type: toxicity, organism-based; parameters: dose 10 mg/kg, route intraperitoneal; conditions: in vivo
[4] = tested on: Mus musculus; test: Toxicity in C57BL/6 mouse assessed as change in body weight at 10 mg/kg, ip; type: organism-based; parameters: dose 10 mg/kg, route intraperitoneal; conditions: in vivo
[5] = tested on: Mus musculus; test: Neuroprotective activity in C57BL/6 mouse sub-acute MPTP-induced parkinson's disease model assessed as increase in NGF expression in brain at 10 mg/kg, ip administered for 1 week prior to MPTP challenge by immunohistochemistry; type: functional, organism-based; parameters: dose 10 mg/kg
[6] = tested on: Mus musculus; test: Neurotoxicity in C57BL/6 mouse assessed as reduction of DA transporter expression in substantia nigra at 10 mg/kg, ip by immunohistochemistry; type: toxicity, organism-based; parameters: dose 10 mg/kg, route intraperitoneal; conditions: in vivo
[7] = tested on: Mus musculus; test: Toxicity in C57BL/6 mouse assessed as faster drop time at 10 mg/kg, ip by pole test; type: organism-based; parameters: dose 10 mg/kg, route intraperitoneal; conditions: in vivo
[8] = tested on: Mus musculus; test: Antiapoptotic activity against DA neurons in C57BL/6 mouse acute MPTP-induced parkinson's disease model assessed as protection against neuronal functional disruption at 10 mg/kg, ip administered for 1 week prior to MPTP challenge by golgi staining-based microscopic analysis relative to untreated control; type: organism-based; parameters: dose 10 mg/kg
[9] = tested on: Mus musculus; test: Neuroprotective activity in C57BL/6 mouse acute MPTP-induced Parkinson's disease model assessed as increase in GAP-43 expression in brain at 10 mg/kg, ip administered for 1 week prior to MPTP challenge by immunohistochemistry; type: functional, organism-based; parameters: dose 10 mg/kg
[10] = tested on: Mus musculus; test: Antiapoptotic activity against DA neurons in C57BL/6 mouse acute MPTP-induced parkinson's disease model assessed as increase in Bcl2 expression at 10 mg/kg, ip administered for 1 week prior to MPTP challenge measured after 8 days by immunohistochemistry relative to untreated control; type: functional, organism-based; parameters: dose 10 mg/kg
[11] = tested on: Mus musculus; test: Antiparkinsonian activity in C57BL/6 mouse sub-acute MPTP-induced parkinson's disease model assessed as reduction in MPTP-induced change in body weight at 10 mg/kg, ip administered for 1 week prior to MPTP challenge relative to control; type: functional, organism-based; parameters: dose 10 mg/kg
[12] = tested on: Mus musculus; test: Neuroprotective activity in C57BL/6 mouse acute MPTP-induced parkinson's disease model assessed as prevention of loss of DA transporter expression in substantia nigra at 10 mg/kg, ip administered for 1 week prior to MPTP challenge by immunohistochemistry; type: functional, organism-based; parameters: dose 10 mg/kg
[13] = tested on: Mus musculus; test: Neuroprotective activity in C57BL/6 mouse sub-acute MPTP-induced parkinson's disease model assessed as increase in BDNF expression in brain at 10 mg/kg, ip administered for 1 week prior to MPTP challenge by immunohistochemistry; type: functional, organism-based; parameters: dose 10 mg/kg
[14] = tested on: Mus musculus; test: Neurotoxicity in C57BL/6 mouse assessed as IL-1beta localization in brain at 10 mg/kg, ip measured after 8 days by immunohistochemistry; type: toxicity, organism-based; parameters: dose 10 mg/kg, route intraperitoneal; conditions: in vivo, 192 h
[15] = tested on: Mus musculus; test: Neuroprotective activity in C57BL/6 mouse sub-acute MPTP-induced parkinson's disease model assessed as increase in TH protein expression in striatum at 10 mg/kg, ip administered for 1 week prior to MPTP challenge measured after 8 days by immunohistochemistry relative to untreated control; type: functional, organism-based; parameters: dose 10 mg/kg
[16] = tested on: Mus musculus; test: Neuroprotective activity in C57BL/6 mouse sub-acute MPTP-induced parkinson's disease model assessed as prevention of loss of DA transporter expression in substantia nigra at 10 mg/kg, ip administered for 1 week prior to MPTP challenge by immunohistochemistry; type: functional, organism-based; parameters: dose 10 mg/kg
[17] = tested on: Mus musculus; test: Antiparkinsonian activity in C57BL/6 mouse acute MPTP-induced parkinson's disease model assessed as reduction in MPTP-induced change in body weight at 10 mg/kg, ip administered for 1 week prior to MPTP challenge relative to control; type: functional, organism-based; parameters: dose 10 mg/kg
[18] = tested on: Mus musculus; test: Antiapoptotic activity against DA neurons in C57BL/6 mouse sub-acute MPTP-induced parkinson's disease model assessed as reduction in Bax expression at 10 mg/kg, ip administered for 1 week prior to MPTP challenge measured after 8 days by immunohistochemistry relative to untreated control; type: functional, organism-based; parameters: dose 10 mg/kg
[19] = tested on: Mus musculus; test: Neuroprotective activity in C57BL/6 mouse acute MPTP-induced parkinson's disease model assessed as preservation of neurological behavioural changes at 10 mg/kg, ip administered for 1 week prior to MPTP challenge measured for 3 mins by open field test relative to vehicle-treated control; type: functional, organism-based; parameters: dose 10 mg/kg
[20] = tested on: Mus musculus; test: Neurotoxicity in C57BL/6 mouse assessed as Nrf2 localization in brain at 10 mg/kg, ip by immunohistochemistry; type: toxicity, organism-based; parameters: dose 10 mg/kg, route intraperitoneal; conditions: in vivo
[21] = tested on: Mus musculus; test: Neuroprotective activity in C57BL/6 mouse sub-acute MPTP-induced parkinson's disease model assessed as latency time at 10 mg/kg, ip administered for 1 week prior to MPTP challenge by open field test relative to vehicle-treated control; type: functional; conditions: route intraperitoneal
[22] = tested on: Mus musculus; test: Antiinflammatory activity against C57BL/6 mouse acute MPTP-induced parkinson's disease model assessed as reduction in cytosolic GFAP localization in brain at 10 mg/kg, ip administered for 1 week prior to MPTP challenge by immunohistochemistry relative to untreated control; type: functional, organism-based; parameters: dose 10 mg/kg
[23] = species: Mus musculus; test: Antiinflammatory activity against C57BL/6 mouse sub-acute MPTP-induced parkinson's disease model assessed as reduction in nitrotyrosine localization in substantia nigra pars compacta prior to MPTP challenge by immunohistochemistry relative to untreated control; type: functional, organism-based
[24] = tested on: Mus musculus; test: Antiinflammatory activity against C57BL/6 mouse sub-acute MPTP-induced parkinson's disease model assessed as reduction in IL-1beta localization in brain at 10 mg/kg, ip administered for 1 week prior to MPTP challenge measured after 8 days by immunohistochemistry relative to untreated control; type: functional, organism-based; parameters: dose 10 mg/kg
[25] = tested on: Mus musculus; test: Antiinflammatory activity against C57BL/6 mouse sub-acute MPTP-induced parkinson's disease model assessed as reduction in cytosolic GFAP localization in brain at 10 mg/kg, ip administered for 1 week prior to MPTP challenge by immunohistochemistry relative to untreated control; type: functional, organism-based; parameters: dose 10 mg/kg
[26] = tested on: Mus musculus; test: Toxicity in C57BL/6 mouse assessed as Bcl2 expression in brain at 10 mg/kg, ip measured after 8 days by immunohistochemistry; type: organism-based; parameters: dose 10 mg/kg, route intraperitoneal; conditions: in vivo, 192 h
[27] = tested on: Mus musculus; test: Neurotoxicity in C57BL/6 mouse assessed as basal GAP-43 expression in brain at 10 mg/kg, ip by immunohistochemistry; type: toxicity, organism-based; parameters: dose 10 mg/kg, route intraperitoneal; conditions: in vivo
[28] = tested on: Mus musculus; test: Neuroprotective activity in C57BL/6 mouse acute MPTP-induced parkinson's disease model assessed as increase in BDNF expression in brain at 10 mg/kg, ip administered for 1 week prior to MPTP challenge by immunohistochemistry; type: functional, organism-based; parameters: dose 10 mg/kg
[29] = tested on: Mus musculus; test: Neurotoxicity in C57BL/6 mouse assessed as cytosolic GFAP localization in brain at 10 mg/kg, ip by immunohistochemistry; type: toxicity, organism-based; parameters: dose 10 mg/kg, route intraperitoneal; conditions: in vivo
[30] = tested on: Mus musculus; test: Toxicity in C57BL/6 mouse assessed as Bax expression in brain at 10 mg/kg, ip measured after 8 days by immunohistochemistry; type: organism-based; parameters: dose 10 mg/kg, route intraperitoneal; conditions: in vivo, 192 h
[31] = tested on: Mus musculus; test: Antiinflammatory activity against C57BL/6 mouse acute MPTP-induced parkinson's disease model assessed as reduction in nitrotyrosine localization in substantia nigra pars compacta at 10 mg/kg, ip administered for 1 week prior to MPTP challenge by immunohistochemistry relative to untreated control; type: functional, organism-based; parameters: dose 10 mg/kg
[32] = tested on: Mus musculus; test: Antiapoptotic activity against DA neurons in C57BL/6 mouse sub-acute MPTP-induced parkinson's disease model assessed as increase in Bcl2 expression at 10 mg/kg, ip administered for 1 week prior to MPTP challenge measured after 8 days by immunohistochemistry relative to untreated control; type: functional, organism-based; parameters: dose 10 mg/kg
[33] = tested on: Mus musculus; test: Neuroprotective activity in C57BL/6 mouse sub-acute MPTP-induced parkinson's disease model assessed as increase in GAP-43 expression in brain at 10 mg/kg, ip administered for 1 week prior to MPTP challenge by immunohistochemistry; type: functional, organism-based; parameters: dose 10 mg/kg
[34] = tested on: Mus musculus; test: Neurotoxicity in C57BL/6 mouse assessed as basal NGF expression in brain at 10 mg/kg, ip by immunohistochemistry; type: toxicity, organism-based; parameters: dose 10 mg/kg, route intraperitoneal; conditions: in vivo
[35] = tested on: Mus musculus; test: Antiinflammatory activity against C57BL/6 mouse acute MPTP-induced parkinson's disease model assessed as reduction in IL-1beta localization in brain at 10 mg/kg, ip administered for 1 week prior to MPTP challenge measured after 8 days by immunohistochemistry relative to untreated control; type: functional, organism-based; parameters: dose 10 mg/kg
[36] = tested on: Mus musculus; test: Antiapoptotic activity against DA neurons in C57BL/6 mouse acute MPTP-induced parkinson's disease model assessed as reduction in Bax expression at 10 mg/kg, ip administered for 1 week prior to MPTP challenge measured after 8 days by immunohistochemistry relative to untreated control; type: functional, organism-based; parameters: dose 10 mg/kg
[37] = tested on: Mus musculus; test: Neuroprotective activity in C57BL/6 mouse sub-acute MPTP-induced parkinson's disease model assessed as bewilderment at 10 mg/kg, ip administered for 1 week prior to MPTP challenge by pole test relative to untreated control; type: functional, organism-based; parameters: dose 10 mg/kg
[38] = tested on: Mus musculus; test: Neurotoxicity in C57BL/6 mouse assessed as TH protein expression in striatum at 10 mg/kg, ip measured after 8 days by immunohistochemistry; type: toxicity, organism-based; parameters: dose 10 mg/kg, route intraperitoneal; conditions: in vivo, 192 h
[39] = tested on: Mus musculus; test: Neuroprotective activity in C57BL/6 mouse acute MPTP-induced parkinson's disease model assessed as increase in TH protein expression in striatum at 10 mg/kg, ip administered for 1 week prior to MPTP challenge measured after 8 days by immunohistochemistry relative to untreated control; type: functional, organism-based; parameters: dose 10 mg/kg
[40] = tested on: Mus musculus; test: Antiinflammatory activity against C57BL/6 mouse acute MPTP-induced parkinson's disease model assessed as increase in Nrf2 localization in brain at 10 mg/kg, ip administered for 1 week prior to MPTP challenge by immunohistochemistry relative to untreated control; type: functional, organism-based; parameters: dose 10 mg/kg
[41] = tested on: Mus musculus; test: Antiinflammatory activity against C57BL/6 mouse sub-acute MPTP-induced parkinson's disease model assessed as increase in Nrf2 localization in brain at 10 mg/kg, ip administered for 1 week prior to MPTP challenge by immunohistochemistry relative to untreated control; type: functional, organism-based; parameters: dose 10 mg/kg

## C[S@@+]([O-])CCCC/C(=N/OS(=O)(=O)O)S[C@@H]1O[C@H](CO)[C@@H](O)[C@H](O)[C@H]1O (racemic)
[1]
  Activity: Active
[2]
  Activity: Active
[3]
  Activity: Non-toxic
[4]
  Activity: Non-toxic
[5]
  Activity: Active
[6]
  Activity: Non-toxic
[7]
  Activity: Non-toxic
[8]
  Activity: Active
[9]
  Activity: Active
[10]
  Activity: Active
[11]
  Activity: Active
[12]
  Activity: Active
[13]
  Activity: Active
[14]
  Activity: Non-toxic
[15]
  Activity: Active
[16]
  Activity: Active
[17]
  Activity: Active
[18]
  Activity: Active
[19]
  Activity: Active
[20]
  Activity: Non-toxic
[21]
  Time: 0 min
[22]
  Activity: Active
[23]
  Activity: Active
[24]
  Activity: Active
[25]
  Activity: Active
[26]
  Activity: Non-toxic
[27]
  Activity: Non-toxic
[28]
  Activity: Active
[29]
  Activity: Non-toxic
[30]
  Activity: Non-toxic
[31]
  Activity: Active
[32]
  Activity: Active
[33]
  Activity: Active
[34]
  Activity: Non-toxic
[35]
  Activity: Active
[36]
  Activity: Active
[37]
  Activity: Active
[38]
  Activity: Non-toxic
[39]
  Activity: Active
[40]
  Activity: Active
[41]
  Activity: Active
